Here are results for four compounds from patent US5684020A, “Piperazine, piperidine and 1,2,5,6-tetrahydropyridine” (Adir et Compagnie, priority 1995, dated 1997).

Data set [1] has as its system aggressiveness in isolated mice. Nature of the data set: Test of aggressiveness in isolated mice. In kind it is in vivo, male CD mice. Particulars: Mus musculus, sc; 30 minutes before test; read-out: ID50 (dose reducing by half number or duration of attacks). An excerpt: 2. Test of aggressiveness in isolated mice
This test allows the evaluation of the intraspecies anti-aggressive activity of a product in mice that have been kept in isolation for several months.
Animals: The test uses male CD mice (Charles River) weighing from 22 to 25 g when they arrive at the animal house. On their arrival, the animals are isolated in individual cages made of opaque black polycarbonate (23×14×13 cm) with a grill lid, and are housed for a prolonged period (approximately 6 months) in the experimentation room.
Selection of pairs of mice: The selection of aggressive pairs of mice that will be used chronically in the study commences after the animals have been isolated for one month. […]
Test: The test takes place once a week. […] The latent period (in seconds) of the first attack and the number and total duration (in seconds) of the attacks are recorded. […]
Statistical analysis: The effects of a product on aggressiveness are evaluated by comparing the number and the duration of the attacks by the pairs of mice that have received the product (treated groups) with those obtained with the pairs that have received the solvent (control group) by using a variance analysis (ANOVA) followed by a Dunnett's test, with the probability p<0.05. […]

The nature of data set [2]: Induction of catalepsy in the rat. As to conditions: in vivo, sc, 1 hour after injection, 50% of maximum 30 seconds. An excerpt:
3. Induction of catalepsy in the rat
The acute administration of "typical" antipsychotics to an animal induces catalepsy, that is to say the maintenance of the animal in an often abnormal posture which has been imposed upon it by the experimenter (Waldmeier, 1979). The evaluation of the cataleptogenic properties of a product in the rat thus makes it possible to know whether that product, administered to man, will or will not risk causing an extrapyramidal-type syndrome.
Test: The animals are placed in individual cages and food is withdrawn the day before the test but water taken as desired. The catalepsy test comprises placing each rear paw of the animal on the front paw of the same side and measuring the time (seconds) that the animal remains in that "crossed paws" position (maximum 30 seconds). Each animal is subjected to 3 successive tests (one every two minutes), the animal being removed from its cage and placed on the work surface. Those tests are carded out 1 hour after the subcutaneous injection or oral administration of the product or its solvent. The average value of 3 tests represents the duration of the catalepsy (seconds) for each animal. There are 5 or 6 rats per experimental group.
Statistical analysis: The effect of the product on the duration of the catalepsy is evaluated by an ANOVA, followed by a Dunnett's test, with the probability p<0.05. […]

For data set [3], the system named is Verticalisation induced by apomorphine. Nature of the data set: Verticalisation induced by apomorphine in the mouse. The class given is in vivo. Particulars: sc, 0.5 h, s.c., apomorphine 0.75 mg/kg s.c. 30 minutes later, read-out: ID50 (dose reducing by half the average verticalisation score). Here is the method: 1. Verticalisation induced by apomorphine (0.75 mg/kg, s.c.) in the mouse
This test, described by Protais et al (Psychopharmacologie, 1976, 50, 1-6) allows the evaluation of the dopaminergic antagonist activity of possible antipsychotic products. A mouse to which apomorphine has been administered and which has been placed in a cage comprising vertical bars, remains most of the time immobile at the top of the cage clinging by its 4 paws to the bars. That verticalisation behaviour is blocked if a dopaminergic antagonist product has been administered before the apomorphine.
Test: After the subcutaneous (s.c.) administration of the product or solvent (control group), the mouse is placed in a cylindrical barred cage (14 cm diam.×14 cm h) having vertical bars. Thirty minutes later, the animal receives the apomorphine dose (0.75 mg/kg, s.c.). […]
Statistical analysis: The effect of the product on verticalisation is evaluated by comparing the scores obtained for each group that has been administered a dose of product with those obtained for the control group (solvent) using a Mann and Whitney U test, with a probability p<0.05. […]

The test system of another data set is dopamine turnover. The data set is described as follows: Dopamine turnover (DOPAC/dopamine ratio) in rat brain structures. The class given is in vivo, Male Wistar rats. Particulars: regions studied: frontal cortex, nucleus accumbens, olfactory tubercles, striatum. The procedure:
by dopamine synthesis (turnover) studies in the following structures: frontal cortex (mesocortical pathway), nucleus accumbens and olfactory tubercle (mesolimbic pathway), striatum (nigrostriatal pathway). The functional dopaminergic antagonists cause an increase in the synthesis of dopamine in those structures.
Male Wistar rats (Iffa Credo, Illskirchen France) weighing 250 to 280 g are kept in a 12h/12h light/darkness cycle (light switched on at 7.30 a.m.). They have free access to water and food; the laboratory temperature is 21°±1° C. and the humidity is 60±5%.
Dopamine turnover: The effect of the products of the invention and the reference product on dopamine turnover is determined after subcutaneous injection. After a period of 30 minutes, the rats are decapitated and the brain is dissected in order to extract the striatum, the nucleus accumbens, the frontal cortex and the olfactory tubercles. The tissues are homogenised in 500 μl of HClO4 0.1M containing 0.5% Na2 S2 O5 and 0.5% EDTA Na2 and centrifuged at 15,000 g for 15 minutes at 4° C. The supernatants are diluted in the mobile phase and injected into an HPLC column (Hypersil ODS 5 μm, C18, 150×4.6mm, Thermo Separation Products, Les Ulis, France) thermostatically controlled at 25° C. […]

Another data set relates to schizophrenia patients. Particulars: Davis et al., 1983; cited from earlier work.

On to `c1ccc2c(c1)CC(CN1CCN(c3ccc4c(c3)OCCO4)CC1)C2` [Example 6, 4-(2,3-Dihydrobenzo-1,4-dioxin-6-yl)-1-(indan-2-ylmethyl)piperazine], for which the ED50 in data set [1] was 0.99 mg/kg; in data set [3], 3.88 mg/kg. Also, in data set [2], the ED50 at 1 h is > 80 mg/kg.
For `O=C(CCCN1CCC(O)(c2ccc(Cl)cc2)CC1)c1ccc(F)cc1` [Haloperidol], in data set [2], the ED50 at 1 h came out at 0.146 mg/kg. Besides, the “effect on dopaminergic transmission (in words)” value with dopamine turnover is reported as “significant effect on dopaminergic transmission in each of the regions studied”. In the data set on schizophrenia patients, the “extrapyramidal symptoms (in words)” value is on record as “often brings about the appearance of undesirable extrapyramidal symptoms (EPS) of the Parkinson's type”.
Take `CN(C)CCCN1c2ccccc2Sc2ccc(Cl)cc21` [chlorpromazine]: in the data set on schizophrenia patients, the “extrapyramidal symptoms (in words)” value was “often brings about the appearance of undesirable extrapyramidal symptoms (EPS) of the Parkinson's type”.
Turning to `CN1CCN(C2=Nc3cc(Cl)ccc3Nc3ccccc32)CC1` [clozapine], in the data set on schizophrenia patients, the “extrapyramidal symptoms (in words)” value is on record as “cause few extrapyramidal symptoms”.
